Assay results taken from patent publication US8445474B2 (Knopp Neurosciences, Inc., priority 2006, dated 2013).

What was measured:
[1] = Dissolution of exploratory combination capsules in simulated gastric fluid (SGF), chiral HPLC; type: physicochemical; conditions: for Average Concentrations of the enantiomer, Experiments SGF (1) and SGF (2) / Concentration of the enantiomer in SGF (1) Vessel / Concentration of the enantiomer in SGF (2) Vessel: combination capsule in 10 mL SGF pH 1.2
Protocol: Drug Formulation. […] Normal phase, chiral HPLC was used for monitoring the release of R(+) pramipexole and S(−) pramipexole in simulated gastric fluid (SGF).
Dissolution Study. SGF (pH=1.2) was prepared by diluting 1 g of sodium chloride and 7 mL of concentrated HCl to 1 L with HPLC grade water. The dissolution experiment was run as follows: an exploratory combination capsule was placed in 10 mL of SGF and shaken under ambient conditions at 600 RPM for 60 minutes. Aliquots of 100 μL were pulled from the same sample vessel at various time points. The 100 μL samples of SGF solution were evaporated using a nitrogen bleed and heat and the residues were dissolved in the HPLC diluent and filtered through 0.45 μm syringe filters. […] This experiment was performed in duplicate (experiment numbers SGF (1) (see Table 4) and SGF (2) (see Table 5)) and the results are also provided in average values (see Table 6). The tables and figures below summarize the results from these experiments.

[2] = target: human cloned dopamine receptor D3 (Homo sapiens, UniProt P35462); assay: biochemical
Protocol: (§1) Eight concentrations were tested: 50 nM, 100 nM, 500 nM, 1 μM, 5 μM, 10 μM, 50 μM, 100 μM. These concentrations were tested in either CHO (Chinese hamster ovary) or HEK293 (human embryonic kidney) cell lines expressing human cloned dopamine receptors (D1, D2S, D2L, D3, D4, D5). The radio-ligand in each case was either [^3H] spiperone or [^3H] SCH23390 (a classic D1 dopamine receptor antagonist R-(+)-7-Chloro-8-hydroxy-3-methyl-1-phenyl-2,3,4,5-tetrahydro-1H-3-benzazepine hydrochloride), both antagonists at 0.3 nM. Incubation was for 60 minutes, and data were collected for 2 repeats using scintillation counting.

[3] = target: human cloned dopamine receptor D5 (Homo sapiens, UniProt P21918); assay: biochemical
Protocol: as §1

[4] = target: human cloned dopamine receptor D2L (Homo sapiens, UniProt P14416); conditions: R(+) versus S(−)
Protocol: as §1

[5] = target: human cloned dopamine receptor D2S (Homo sapiens, UniProt P14416); conditions: R(+) versus S(−)
Protocol: as §1

dopamine receptors = conditions: present data
[6] = 4320 minutes, stored benchtop in clear vial
[7] = non-naïve male beagle dogs, single oral dose

Chain of human cloned dopamine receptor D3 (P35462 whole entry): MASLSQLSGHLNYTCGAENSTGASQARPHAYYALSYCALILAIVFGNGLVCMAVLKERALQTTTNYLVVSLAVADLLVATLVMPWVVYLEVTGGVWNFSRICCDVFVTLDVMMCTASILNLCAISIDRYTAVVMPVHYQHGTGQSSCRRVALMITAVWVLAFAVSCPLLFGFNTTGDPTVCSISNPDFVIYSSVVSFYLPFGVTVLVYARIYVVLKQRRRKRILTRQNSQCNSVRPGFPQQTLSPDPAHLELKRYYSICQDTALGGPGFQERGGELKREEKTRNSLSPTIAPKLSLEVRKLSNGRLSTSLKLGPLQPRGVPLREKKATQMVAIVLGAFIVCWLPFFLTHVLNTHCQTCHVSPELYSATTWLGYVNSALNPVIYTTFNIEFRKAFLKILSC
Chain of human cloned dopamine receptor D5 (P21918 whole entry): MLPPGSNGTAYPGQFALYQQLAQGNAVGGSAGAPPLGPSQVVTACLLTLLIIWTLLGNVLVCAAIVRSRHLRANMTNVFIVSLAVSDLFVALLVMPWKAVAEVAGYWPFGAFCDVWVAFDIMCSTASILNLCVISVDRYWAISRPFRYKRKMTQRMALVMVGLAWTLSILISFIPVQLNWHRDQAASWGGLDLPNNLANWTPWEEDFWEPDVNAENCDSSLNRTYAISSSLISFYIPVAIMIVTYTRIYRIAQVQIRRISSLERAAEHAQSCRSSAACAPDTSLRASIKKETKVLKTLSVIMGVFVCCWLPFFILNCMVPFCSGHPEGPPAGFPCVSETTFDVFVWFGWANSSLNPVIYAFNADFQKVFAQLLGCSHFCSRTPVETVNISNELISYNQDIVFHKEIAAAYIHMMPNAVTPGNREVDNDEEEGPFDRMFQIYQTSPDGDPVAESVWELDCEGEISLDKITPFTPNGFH
Chain of human cloned dopamine receptor D2L (P14416 whole entry): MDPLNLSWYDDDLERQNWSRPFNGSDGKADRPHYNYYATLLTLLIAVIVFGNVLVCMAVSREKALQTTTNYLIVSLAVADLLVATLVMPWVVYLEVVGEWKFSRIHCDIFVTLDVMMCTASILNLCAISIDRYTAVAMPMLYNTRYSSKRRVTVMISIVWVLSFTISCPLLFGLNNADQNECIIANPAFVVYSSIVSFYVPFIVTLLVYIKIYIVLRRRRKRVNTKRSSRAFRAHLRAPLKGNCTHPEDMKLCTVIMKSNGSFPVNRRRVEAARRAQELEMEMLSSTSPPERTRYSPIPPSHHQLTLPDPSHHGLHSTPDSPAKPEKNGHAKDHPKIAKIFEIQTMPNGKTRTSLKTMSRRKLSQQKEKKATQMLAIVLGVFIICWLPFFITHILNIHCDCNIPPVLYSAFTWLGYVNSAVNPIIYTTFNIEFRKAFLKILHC
Chain of human cloned dopamine receptor D2S (P14416 1-414 isoform P14416-2): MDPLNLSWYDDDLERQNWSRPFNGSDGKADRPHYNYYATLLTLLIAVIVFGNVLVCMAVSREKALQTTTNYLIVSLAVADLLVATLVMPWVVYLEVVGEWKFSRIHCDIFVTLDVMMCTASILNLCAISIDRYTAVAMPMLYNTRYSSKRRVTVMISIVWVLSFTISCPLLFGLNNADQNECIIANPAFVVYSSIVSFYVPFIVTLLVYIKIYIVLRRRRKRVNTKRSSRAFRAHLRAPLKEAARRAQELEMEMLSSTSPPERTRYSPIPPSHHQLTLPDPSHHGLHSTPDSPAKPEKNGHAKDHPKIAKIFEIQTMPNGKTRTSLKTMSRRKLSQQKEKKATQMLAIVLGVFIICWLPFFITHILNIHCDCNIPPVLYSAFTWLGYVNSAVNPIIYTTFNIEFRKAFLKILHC
Protocol for male beagle dogs: Doses were administered orally by gavage and clinical observations were taken continuously following dosing: hourly for the first four hours, and then twice daily cage-side observations for the duration of the inter-dose or post-dose interval. Observations were made of clinical signs, mortality, injury and availability of food and water. Animals were fasted for 24 hr prior to dosing. Dogs in each group were exposed to only one drug, or the combination; each dose was administered only once, with a subsequent dose administered after a recovery period of 4 days.

In the case of `CCCN[C@H]1CCc2nc(N)sc2C1` (single isomer, unassigned) [R(+) pramipexole], the “Average Concentrations of the enantiomer, Experiments SGF (1) and SGF (2)” value (shortened to “Average Concentrations of the enantiomer”) ([1]; 3 minutes) is reported as 0 mg/mL, the “Concentration of the enantiomer in SGF (1) Vessel” value (from here on “Concentration … (1) Vessel”) ([1]; 3 minutes) is reported as 0 µg/mL and the “Concentration of the enantiomer in SGF (2) Vessel” value (“Concentration … (2) Vessel” for short) ([1]; 3 minutes) is reported as 0 µg/mL. For the same molecule, the “Average Concentrations of the enantiomer” value ([1]; 4 minutes) was 0.002035 mg/mL, the “Concentration … (1) Vessel” value ([1]; 4 minutes) was 1.824 µg/mL and the “Concentration … (2) Vessel” value ([1]; 4 minutes) was 2.245 µg/mL. For the same molecule, the “Average Concentrations of the enantiomer” value ([1]; 6 minutes) was 0.06814 mg/mL, the “Concentration … (1) Vessel” value ([1]; 6 minutes) was 42.59 µg/mL and the “Concentration … (2) Vessel” value ([1]; 6 minutes) was 93.7 µg/mL. For the same molecule, the “Average Concentrations of the enantiomer” value ([1]; 8 minutes) was 7.346 mg/mL, the “Concentration … (1) Vessel” value ([1]; 8 minutes) was 6441 µg/mL and the “Concentration … (2) Vessel” value ([1]; 8 minutes) was 8250 µg/mL. For the same molecule, the “Average Concentrations of the enantiomer” value ([1]; 10 minutes) was 8.615 mg/mL, the “Concentration … (1) Vessel” value ([1]; 10 minutes) was 8443 µg/mL and the “Concentration … (2) Vessel” value ([1]; 10 minutes) was 8787 µg/mL. For the same molecule, the “Average Concentrations of the enantiomer” value ([1]; 11 minutes) was 8.938 mg/mL, the “Concentration … (1) Vessel” value ([1]; 11 minutes) was 8746 µg/mL and the “Concentration … (2) Vessel” value ([1]; 11 minutes) was 9131 µg/mL. The “Average Concentrations of the enantiomer” value ([1]; 12 minutes) was 8.927 mg/mL, the “Concentration … (1) Vessel” value ([1]; 12 minutes) was 8767 µg/mL and the “Concentration … (2) Vessel” value ([1]; 12 minutes) was 9086 µg/mL. For the same molecule, the “Average Concentrations of the enantiomer” value ([1]; 14 minutes) was 9.164 mg/mL, the “Concentration … (1) Vessel” value ([1]; 14 minutes) was 9236 µg/mL and the “Concentration … (2) Vessel” value ([1]; 14 minutes) was 9092 µg/mL. The “Average Concentrations of the enantiomer” value ([1]; 15 minutes) was 9.463 mg/mL, the “Concentration … (1) Vessel” value ([1]; 15 minutes) was 9510 µg/mL and the “Concentration … (2) Vessel” value ([1]; 15 minutes) was 9416 µg/mL. The “Average Concentrations of the enantiomer” value ([1]; 17 minutes) was 9.438 mg/mL, the “Concentration … (1) Vessel” value ([1]; 17 minutes) was 9398 µg/mL and the “Concentration … (2) Vessel” value ([1]; 17 minutes) was 9477 µg/mL. The “Average Concentrations of the enantiomer” value ([1]; 18 minutes) was 9.258 mg/mL, the “Concentration … (1) Vessel” value ([1]; 18 minutes) was 9127 µg/mL and the “Concentration … (2) Vessel” value ([1]; 18 minutes) was 9390 µg/mL. For the same molecule, the “Average Concentrations of the enantiomer” value ([1]; 20 minutes) was 9.475 mg/mL, the “Concentration … (1) Vessel” value ([1]; 20 minutes) was 9457 µg/mL and the “Concentration … (2) Vessel” value ([1]; 20 minutes) was 9493 µg/mL. The “Average Concentrations of the enantiomer” value ([1]; 25 minutes) was 9.61 mg/mL, the “Concentration … (1) Vessel” value ([1]; 25 minutes) was 9579 µg/mL and the “Concentration … (2) Vessel” value ([1]; 25 minutes) was 9641 µg/mL. For the same molecule, the “Average Concentrations of the enantiomer” value ([1]; 30 minutes) was 9.65 mg/mL, the “Concentration … (1) Vessel” value ([1]; 30 minutes) was 9894 µg/mL and the “Concentration … (2) Vessel” value ([1]; 30 minutes) was 9406 µg/mL. The “Average Concentrations of the enantiomer” value ([1]; 60 minutes) was 9.127 mg/mL, the “Concentration … (1) Vessel” value ([1]; 60 minutes) was 9530 µg/mL and the “Concentration … (2) Vessel” value ([1]; 60 minutes) was 8725 µg/mL. The “Average Concentrations of the enantiomer” value [1, 6] was 4.163 mg/mL, the “Concentration … (1) Vessel” value [1, 6] was 3624 µg/mL and the “Concentration … (2) Vessel” value [1, 6] was 4702 µg/mL. The “course of release from the capsule” value ([1]; SGF pH 1.2, 60 minutes) was “leveled off after 11 minutes”, the “cause of decrease in concentration at approximately 72 hours” value ([1]; SGF samples stored benchtop in a clear vial) was “light degradation” and the IC50 [2] was 12 µM. For the same molecule, the Ki [2] was 2.7 µM, the “less affinity for the D3 receptor subtype than the S(−) enantiomer” value ([2]; R(+) versus S(−)) was “about 5,000 fold” and the IC50 [3] was > 100 µM. The Ki [3] was > 100 µM, the “human dose equivalent to dog MTD” value (male beagle dogs; 70 kg individual) was “about 3,000 mg” and the “MTD greater than for the S(−) enantiomer” value (male beagle dogs; non-naïve dogs) was “about 10,000 fold”. For the same molecule, the “NOAEL greater than for the S(−) enantiomer” value (male beagle dogs; non-naïve dogs) was “approximately 20,000 fold”, the MTD (male beagle dogs; [7]) was 75 mg/kg and the NOAEL (male beagle dogs; [7]) was 25 mg/kg. For the same molecule, the “lower affinity for the D2L receptor subtype than the S(−) enantiomer” value [4] was > 10,000 fold, the “lower affinity for the D2S receptor subtype than the S(−) enantiomer” value [5] was > 10,000 fold and the “less active as a dopamine agonist than the S(−) enantiomer” value (dopamine receptors) was “more than 5,000 fold”.
